Tests used:
[1] = test system: Staphylococcus aureus (ATCC 6538); assay: Surviving microorganisms after direct inoculation of gel formula; type: cell-based
Description: The antimicrobially synergistically effect of alpha bisabolol (Natural) for glyceryl monoalkyl ether was studied and the results are summarized in Tables 15 and 16, below. […] Subsequently the steareth-100, sodium stearate, and […] alcohol were added and the mixture cooled. […] The final compositions were then poured into containers and cooled to room temperature. […] Therefore following formula is gel type. Inoculate test microorganisms to provide a suspension containing from 105 to 106 microorganisms/ml and after 1 hr, 5 hr and 24 hr, check the surviving microorganisms by incubating in the soybean-casein digest agar for 24 hours at 32.5° C. the results are summarized below.

[2] = test system: odor-causing gram positive bacteria; conditions: cited from earlier work
[3] = cited from earlier work
[4] = 0.3% by weight in ethanol base deodorant, versus triclosan; cited from earlier work

Row | SMILES | anti-microbial activity alone ([1]; 0.2% by weight, with no ethylhexylglycerin) | effect on the anti-microbial activity of ethylhexylglycerin ([1]; combination with ethylhexylglycerin) | anti-microbial activity against odor-causing gram positive bacteria [2] | stability ([3]; against hydrolysis and elevated temperatures) | solubility in fats and organic solvents ([3]; fats, alcohols, glycols and glycol ethers) | solubility in water ([3]; water) [%] | deodorant effectiveness [4]
1 | CC(C)=CCC[C@](C)(O)[C@@H]1CC=C(C)CC1 [alpha bisabolol (Natural), alpha-bisabolol] | no anti-microbial activity | surprising and unexpected synergistic effect |  |  |  |  | 
2 | CCCCC(CC)COCC(O)CO (stereo not shown) [Ethylhexylglycerin] |  |  | very low | rather stable | completely soluble | 0.2 | just as effective as 0.1% by weight triclosan

Reference: patent publication US20050089488A1, “Deodorant composition with monocyclic, unsaturated sequiterpene alcohols and glyceryl monoalkyl ethers as synergistic active deodorant agents” (priority 2003, published 2005)
